# Values of other authors as cited in PMC4718634, “Murine GPRC6A Mediates Cellular Responses to L-Amino Acids, but Not Osteocalcin Variants” (PLoS ONE, 2016).
# Legend:
# TC6 = conditions: endogenous; ref [11] (supplement list); cited from earlier work
# Description: (§1) Supplement pone.0146846.s004.docx, table 1 | column: Functional assay
# 22RV1 = conditions: endogenous, cited from earlier work
# Description: as §1
# MC3T3-E1 = conditions: endogenous; ref cell of this line empty; cited from earlier work
# Description: as §1
# 22RV1 / PC-3 = conditions: endogenous; ref [9] (supplement list); cited from earlier work
# Description: as §1
# 3T3-L1 adipocytes = conditions: endogenous; ref [16] (supplement list); cited from earlier work
# Description: as §1
# Unknown species GPRC6A = conditions: ref [11] (supplement list); cited from earlier work
# Description: as §1
# TM3 Leydig cells = conditions: endogenous; ref [12] (supplement list); cited from earlier work
# Description: as §1
# hC6A = conditions: ref [9] (supplement list); cited from earlier work
# Description: as §1
# MA-10 Leyding cells = conditions: endogenous; ref [15] (supplement list); cited from earlier work
# Description: as §1
# GPRC6A [1] = conditions: ref [6] (supplement list); cited from earlier work
# Description: as §1
# GPRC6A [2] = system: GPRC6A; set-up: method as in PMID 15576628; conditions: chimera with goldfish 5.24 receptor and full length GPRC6A; ref [1]; cited from earlier work
# GLUTag cells = conditions: endogenous; ref [17] (supplement list); cited from earlier work
# Description: as §1
compound,measurement,setting,value
"OCN: osteoblast-derived peptide, osteocalcin; variant not specified at the place (YLYQWLGAPVPYPDPLEPRREVCELNPDCDELADHIGFQEAYRRFYGPV; UniProt P02818 52-100, looked up)","pERK1/2, pPKD1 response",TC6,"pERK1/2, pPKD1 – response to OCN, L-Arg"
same,Chemotaxis (22RV1) response,22RV1; ref [9] (supplement list),"pERK1/2 – response to Ca^2+, ZnCl2, OCN, Arginine, Testosterone-BSA Proliferation – response to Ca^2+, OCN PSA, Runx2 expression – response to OCN, Arg, R1881 Chemotaxis (22RV1) – response to Ca^2+, OCN"
same,Proliferation response,22RV1; ref [10] (supplement list),"pERK1/2 – response to Testosterone-BSA, Proliferation – response to Ca^2+, OCN, Testosterone-BSA"
same,SRE-reporter gene response,MC3T3-E1,SRE-reporter gene – response to OCN
same,"PSA, Runx2 expression response",22RV1 / PC-3,"pERK1/2 – response to Ca^2+, ZnCl2, OCN, Arginine, Testosterone-BSA Proliferation – response to Ca^2+, OCN PSA, Runx2 expression – response to OCN, Arg, R1881 Chemotaxis (22RV1) – response to Ca^2+, OCN"
same,Proliferation response,22RV1 / PC-3,"pERK1/2 – response to Ca^2+, ZnCl2, OCN, Arginine, Testosterone-BSA Proliferation – response to Ca^2+, OCN PSA, Runx2 expression – response to OCN, Arg, R1881 Chemotaxis (22RV1) – response to Ca^2+, OCN"
same,pERK1/2 response,22RV1 / PC-3,"pERK1/2 – response to Ca^2+, ZnCl2, OCN, Arginine, Testosterone-BSA Proliferation – response to Ca^2+, OCN PSA, Runx2 expression – response to OCN, Arg, R1881 Chemotaxis (22RV1) – response to Ca^2+, OCN"
same,"Adiponectin, PPARγ expression response",3T3-L1 adipocytes,"cAMP – response to OCN pERK1/2 – response to OCN pCREB – response to OCN Adiponectin, PPARγ expression – response to OCN"
same,cAMP response,3T3-L1 adipocytes,"cAMP – response to OCN pERK1/2 – response to OCN pCREB – response to OCN Adiponectin, PPARγ expression – response to OCN"
same,pCREB response,3T3-L1 adipocytes,"cAMP – response to OCN pERK1/2 – response to OCN pCREB – response to OCN Adiponectin, PPARγ expression – response to OCN"
same,pERK1/2 response,3T3-L1 adipocytes,"cAMP – response to OCN pERK1/2 – response to OCN pCREB – response to OCN Adiponectin, PPARγ expression – response to OCN"
same,pERK1/2 response,Unknown species GPRC6A,"pERK1/2 - response to Ca^2+, L-Arg, OCN."
same,Ca2+i response,TM3 Leydig cells,negative
same,cAMP response,TM3 Leydig cells,response
same,pCREB response,TM3 Leydig cells,response
same,pERK1/2 response,TM3 Leydig cells,negative
same,pERK1/2 response,hC6A,"pERK1/2 – response to Ca^2+, ZnCl2, OCN, Arginine, Testosterone-BSA"
same,Ca^2+i response,MA-10 Leyding cells,response
same,Release of 25-OH-Vit D or Testosterone,MA-10 Leyding cells,response
same,cAMP response,MA-10 Leyding cells,no response
same,SRE-reporter gene response,GPRC6A [1],"pERK1/2 – response to Ca^2+, Mg^2+, Gd^3+, Al^3+, NPS R568 SRE-reporter gene – response to CaCl2, SrCl2, MgCl2, GdCl3 and OCN"
NCCC[C@H](N)C(=O)O [L-ornithine],agonist response of GPRC6A,GPRC6A [2],mediates responses to L-amino acids
same,GLP-1 secretion response,GLUTag cells,response
